The record followed here is ChEMBL document CHEMBL5365416, “Identification of Ecdysteroid Sinapate Esters with COX-2 Inhibitory Effects from Fibraurea recisa Using Molecular Networking and MS2LDA” (2023).

The structures appear in SMILES notation. Calls of active or inactive are those of the source. No cut-off for these calls is given here.

The subject of assay [1] is RAW264.7. The experiment in a line: Inhibition of LPS-induced NO production in mouse RAW264.7 cells at 30 uM relative to control. It counts as functional.
The test system of assay [2] is RAW264.7. As to the kind of experiment: Inhibition of LPS-induced COX2 protein expression in mouse RAW264.7 cells at 1 to 30 uM incubated for 24 hrs by Western blot analysis. It counts as functional, cell-based. The conditions noted are these: dose 1-30 µM. (Immunoblotting shows a protein as a band on a membrane.)
For assay [3], the system named is RAW264.7. The experiment in a line: Inhibition of LPS-induced iNOS protein expression in mouse RAW264.7 cells at 30 uM incubated for 24 hrs by Western blot analysis. The class given is functional, cell-based.
The test system of assay [4] is RAW264.7. The experiment in a line: Inhibition of LPS-induced COX2 protein expression in mouse RAW264.7 cells at 0.1 to 30 uM incubated for 24 hrs by Western blot analysis. The class given is functional, cell-based. Particulars: dose 0.1-30 µM.

On to `COc1cc(/C=C/C(=O)O[C@@H]2C[C@H]3C(=O)C=C4[C@H](CC[C@]5(C)[C@@H]([C@@](C)(O)[C@H](O)C[C@@H](C)C(C)(C)O)CC[C@@]45O)[C@@]3(C)C[C@@H]2O)cc(OC)c1O`, for which, in the assay with RAW264.7 [1], the inhibition at 30 µM came out at 14.7%. Further, the inhibition result with RAW264.7 [2] and in the assay on RAW264.7 [3] was “inactive” throughout.

For `COc1cc(/C=C/C(=O)O[C@H]2C[C@@]3(C)[C@@H](C[C@H]2O)C(=O)C=C2[C@@H]3CC[C@]3(C)[C@@H]([C@@](C)(O)[C@H](O)C[C@@H](C)C(C)(C)O)CC[C@@]23O)cc(OC)c1O`, the inhibition at 30 µM in the assay with RAW264.7 [1] came out at 12.7%. Further, the inhibition entry in the assay with RAW264.7 [2] is “Active”. Besides, in the assay on RAW264.7 [3], the inhibition result was “inactive”.

Regarding `C[C@H](C[C@@H](O)[C@](C)(O)[C@H]1CC[C@@]2(O)C3=CC(=O)[C@@H]4C[C@@H](O)[C@@H](O)C[C@]4(C)[C@H]3CC[C@]12C)C(C)(C)O`, the inhibition entry with RAW264.7 [4] is “inactive”.

On to `COC(=O)/C=C/c1cc(OC)c(O)c(OC)c1`, for which the inhibition result with RAW264.7 [4] was “inactive”.

Usually inhibition stands for the drop in the measured response relative to a control, in per cent.
